Active and inactive are the calls of the source. The rule behind the calls is not given here.
Legend:
[1] = molecular target: T1, Induced myeloid leukemia cell differentiation protein Mcl-1 (Homo sapiens, UniProt Q07820); test: Displacement of FAM-Bid from human Mcl-1 after 30 mins by fluorescence polarization assay
[2] = tested on: SMMC-7721; test: Cytotoxicity against human SMMC7721 cells expressing high level of Mcl-1 after 24 hrs by MTT assay; type: functional, cell-based; settings: SMMC-7721, 24 h
[3] = tested on: MCF7; test: Cytotoxicity against human MCF7 cells after 24 hrs by MTT assay; type: functional, cell-based; settings: MCF7, 24 h
[4] = tested on: HEK293; test: Cytotoxicity against human HEK293 cells after 24 hrs by MTT assay; type: cell-based; settings: HEK293, 24 h
[5] = tested on: SMMC-7721; test: Cytotoxicity against human SMMC7721 cells after 24 hrs by MTT assay; type: functional, cell-based; settings: SMMC-7721, 24 h
[6] = molecular target: T2, MCL1-BAK1 complex (Homo sapiens) (UniProt Q07820+Q16611); test: Inhibition of Mcl-1/Bak interaction in human MCF7 cells at 10 uM after 3 hrs by Western blotting; type: cell-based
[7] = molecular target: T2, MCL1-BAK1 complex (Homo sapiens); test: Inhibition of Mcl-1/Bak interaction in human SMMC7721 cells at 10 uM after 3 hrs by Western blotting; type: cell-based; settings: SMMC-7721
[8] = molecular target: T3, Apoptosis regulator BAX/Induced myeloid leukemia cell differentiation protein Mcl-1 (Homo sapiens) (UniProt Q07820+Q07812); test: Inhibition of Mcl-1/Bax interaction in human SMMC7721 cells at 10 uM after 3 hrs by Western blotting; type: cell-based; settings: SMMC-7721
[9] = molecular target: T1, Induced myeloid leukemia cell differentiation protein Mcl-1; test: Binding affinity to Mcl-1
[10] = molecular target: T4, Apoptosis regulator Bcl-2 (Homo sapiens, UniProt P10415); test: Binding affinity to Bcl-2
[11] = molecular target: T1, Induced myeloid leukemia cell differentiation protein Mcl-1; test: Displacement of FAM-Bid from human Mcl-1 after 30 mins by ELISA
[12] = molecular target: T4, Apoptosis regulator Bcl-2; test: Displacement of FAM-Bid from human Bcl-2 after 30 mins by fluorescence polarization assay
[13] = molecular target: T4, Apoptosis regulator Bcl-2; test: Displacement of FAM-Bid from human recombinant Bcl-2 after 30 mins by ELISA
[14] = molecular target: T3, Apoptosis regulator BAX/Induced myeloid leukemia cell differentiation protein Mcl-1 (Homo sapiens); test: Inhibition of Mcl-1/Bax interaction in human MCF7 cells at 10 uM after 3 hrs by Western blotting; type: cell-based
[15] = molecular target: T2, MCL1-BAK1 complex (Homo sapiens); test: Inhibition of Mcl-1/Bak interaction in human SMMC7721 cells expressing high level of Mcl-1 at 10 uM after 3 hrs by Western blotting; type: cell-based; settings: SMMC-7721

T4 sequence (P10415 whole entry): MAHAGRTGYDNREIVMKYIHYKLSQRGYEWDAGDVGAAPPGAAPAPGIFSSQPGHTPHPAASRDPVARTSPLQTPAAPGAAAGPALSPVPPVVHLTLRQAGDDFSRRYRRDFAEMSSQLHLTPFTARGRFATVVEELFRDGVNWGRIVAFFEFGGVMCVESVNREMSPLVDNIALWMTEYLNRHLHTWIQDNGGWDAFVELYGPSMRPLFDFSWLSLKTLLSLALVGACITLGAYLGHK
T1 sequence (Q07820 whole entry): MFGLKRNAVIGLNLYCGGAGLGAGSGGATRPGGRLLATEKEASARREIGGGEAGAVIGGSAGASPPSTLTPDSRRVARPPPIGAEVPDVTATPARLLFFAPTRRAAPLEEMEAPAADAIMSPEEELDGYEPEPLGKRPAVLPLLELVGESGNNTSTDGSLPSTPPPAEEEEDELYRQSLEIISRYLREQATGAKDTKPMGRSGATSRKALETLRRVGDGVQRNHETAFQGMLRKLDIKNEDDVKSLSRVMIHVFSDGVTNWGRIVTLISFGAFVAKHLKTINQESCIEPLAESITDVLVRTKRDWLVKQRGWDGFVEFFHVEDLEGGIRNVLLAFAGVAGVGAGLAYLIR
T3 sequence (Q07812 whole entry, looked up): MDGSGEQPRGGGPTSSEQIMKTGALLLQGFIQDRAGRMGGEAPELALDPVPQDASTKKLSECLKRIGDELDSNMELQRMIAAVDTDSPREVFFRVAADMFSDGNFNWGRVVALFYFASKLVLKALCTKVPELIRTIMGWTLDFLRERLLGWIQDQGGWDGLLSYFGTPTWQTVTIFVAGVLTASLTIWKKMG
T3 sequence (Q07820 whole entry, looked up): as the sequence (Q07820 whole entry) above

SMILES	Ki [1] [nM]	IC50 [2] [nM]	IC50 [3] [nM]	IC50 [4] [nM]	IC50 [5] [nM]	further results
CCC(C)(C)c1ccc(Oc2ccc3c4c(cccc24)C2=NC(=O)C(C#N)=C23)cc1	967					
COc1ccc(Sc2ccc3c4c(cccc24)C2=NC(=O)C(C#N)=C23)cc1	151					
CC(C)c1ccc(Sc2ccc3c4c(cccc24)C2=NC(=O)C(C#N)=C23)cc1	82					
COc1ccc(Oc2ccc3c4c(cccc24)C2=NC(=O)C(C#N)=C23)cc1	258					
Cc1ccc(Oc2ccc3c4c(cccc24)C2=NC(=O)C(C#N)=C23)cc1	1920					
N#CC1=C2C(=NC1=O)c1cccc3c(Sc4ccccc4)ccc2c13		> 50000	> 50000	> 50000	> 50000	Activity [6]: inactive; Activity [7]: inactive
Cc1ccc(Sc2ccc3c4c(cccc24)C2=NC(=O)C(C#N)=C23)cc1	1510					
N#CC1=C2C(=NC1=O)c1cccc3c(Oc4ccc(-c5ccccc5)cc4)ccc2c13	1280					
N#CC1=C2C(=NC1=O)c1cccc3c(N4CCSCC4)ccc2c13	62	190	90	> 100000	170	Activity [8]: Active; Ki [9]: 58 nM; Ki [10]: 310 nM; IC50 [11]: 35 nM; Ki [12]: 319 nM; IC50 [13]: 285 nM; Activity [14]: Active
N#CC1=C2C(=NC1=O)c1cccc3c(Sc4ccc(-c5ccccc5)cc4)ccc2c13	842					
CN(C)c1ccc(Sc2ccc3c4c(cccc24)C2=NC(=O)C(C#N)=C23)cc1	91					
N#CC1=C2C(=NC1=O)c1cccc3c(Sc4ccc(N)cc4)ccc2c13		16	12	> 50000	18	Activity [15]: inactive; Activity [8]: Active; IC50 [11]: 5 nM; Activity [6]: Active; Activity [7]: Active; IC50 [13]: 302 nM; Activity [14]: Active
N#CC1=C2C(=NC1=O)c1cccc3c(Sc4ccc(Br)cc4)ccc2c13	49	180	90	> 50000	190	Activity [8]: Active; Ki [12]: 382 nM; Activity [14]: Active
CN(C)c1ccc(Oc2ccc3c4c(cccc24)C2=NC(=O)C(C#N)=C23)cc1	122					
CC(C)c1ccc(Oc2ccc3c4c(cccc24)C2=NC(=O)C(C#N)=C23)cc1	99					
CCC(C)(C)c1ccc(Sc2ccc3c4c(cccc24)C2=NC(=O)C(C#N)=C23)cc1	961	25600	21300	> 50000	11900	IC50 [11]: 585 nM; IC50 [13]: 342 nM

Reference: ChEMBL document CHEMBL1671783, “3-Thiomorpholin-8-oxo-8H-acenaphtho[1,2-b]pyrrole-9-carbonitrile (S1) based molecules as potent, dual inhibitors of B-cell lymphoma 2 (Bcl-2) and myeloid cell leukemia sequence 1 (Mcl-1): structure-based design and structure-activity relationship studies” (J Med Chem, 2011)
